# Tested on: MELOE-1 specific CD4 T cell clones
# Assay: Recognition of autologous DC loaded with antigen by CD4 T cell clones (TNF-α)
# Type: cell-based, human
# Procedure: FIG. 4: Class II epitopes are naturally processed from MELOE-1 whole antigen. Autologous DC, were loaded (before or after fixation) with MELOE-12-46 (1 μM) or, as a negative control, with Melan-A16-40L peptide (1 μM), and matured. T cell clones were then stimulated with DC at a ratio 1:1, during 5 h in presence of Brefeldin A, then stained with APC-conjugated anti-CD3 mAb, fixed with 4% paraformaldehyde, labeled with PE-conjugated anti-TNF-α mAb and analyzed by flow cytometry. Histograms illustrated the % of TNF-α producing cells among CD3 positive T cells.
# Dendritic Cells Generation and Loading Monocytes were purified from PBMC of healthy donors by a CD14-enrichment kit, according the recommendations of the supplier (Stem Cell, France). Immature dendritic cells (iDC) were generated by culturing monocytes in RPMI supplemented with 20 mg/mL of human albumin, 1000 IU/mL of GM-CSF and 200 IU/mL of IL-4 for 5 days. Then, iDC were pulsed with the whole MELOE-1 (1 μM) protein or the modified Melan-A16-40 A27L as negative control (1 μM) and matured with 20 ng/mL of TNF-α and 50 μg/mL of PolyI:C for 4 hours at 37° C. Finally they were fixed for 1 minute with PBS/0.015% glutaraldehyde. Alternatively, iDC were first matured, fixed and then pulsed with antigens at the same concentration. […]
sequence,measurement,setting,value
MSCVGYPDEATSREQFLPSEGAACPPWHPSERISSTLNDECWPASL [MELOE-1],recognition by specific CD4 T cell clones of loaded autologous DC,DC loaded after DC fixation,only a weak recognition
same,reactivity of the four CD4 T cell clones against loaded autologous DC,"iDC loaded with 1 μM in serum-free medium, matured, then fixed",reactive

# From patent US9573975B2, “Melanoma antigen peptide and uses thereof” (INSERM (INSTITUT NATIONAL DE LA SANTE ET DE LA RECHERCHE …, priority 2012, dated 2017)
